Results reported in patent EP1143955B1, “A COMBINATION OF FBPase INHIBITORS AND INSULIN SENSITIZERS FOR THE TREATMENT OF DIABETES” (priority 1998, dated 2000).
Values belong to the molecule of their own block, whether it stands above or below them.

Key:
[1] = biological target: human liver FBPase; experiment: Inhibition of Human Liver FBPase (Example A); format: biochemical; conditions: […] fructose 1,6-bisphosphate, 37°C
[2] = biological target: rat liver FBPase; experiment: Inhibition of rat liver FBPase (Example B); format: biochemical; conditions: assayed as for human liver FBPase
[3] = biological target: Mouse liver FBPase; experiment: Inhibition of mouse liver FBPase (Example B); format: biochemical; conditions: partially purified mouse liver FBPase, assayed as for human liver FBPase
[4] = test system: Rat Hepatocytes; experiment: Inhibition of glucose production and elevation of fructose-1,6-bisphosphate levels in rat hepatocytes (Example D); format: cell-based; conditions: isolated rat hepatocytes
Experimental: Hepatocytes were prepared from fed Sprague-Dawley rats (250-300 g) according to the procedure of Berry and Friend (Berry, M.N., Friend, D.S., 1969, J. Cell. Biol. 43, 506-520) as modified by Groen (Groen, A.K., Sips, H.J., Vervoom, R.C., Tager, J.M. , 1982, Eur. J. Biochem. 122, 87-93). Hepatocytes (75 mg wet weight/ml) were incubated in 1 ml Krebs-bicarbonate buffer containing 10 mM Lactate, 1 mM pyruvate, 1 mg/ml BSA, and test compound concentrations from 0 to 500 µM. Incubations were carried out in a 95% oxygen, 5% carbon dioxide atmosphere in closed, 50-ml Falcon tubes submerged in a rapidly shaking water bath (37°C). After 1 hour, an aliquot (0.25 ml) was removed, transferred to an Eppendorf tube and centrifuged. 50 µl of supernatant was then assayed for glucose content using a Sigma Glucose Oxidase kit as per the manufacturer's instructions.
Rat hepatocytes were isolated and incubated as described in Example C. Cell extracts, were analyzed for glucose content as described in Example C, and also for fructose 1,6-bisphosphate. Fructose 1,6-bisphosphate was assayed spectrophotometrically by coupling its enzymatic conversion to glycerol 3-phosphate to the oxidation of NADH, which was monitored at 340 nm. […] After a 30 minute preincubation at 37°C, 1 unit/ml of aldolase was added and the change in absorbance measured until a stable value was obtained. […]

[5] = test system: Normal Fasted Rats; experiment: Glucose lowering after intraperitoneal administration to normal fasted rats (Example F); format: in vivo; conditions: 18-hour fasted Sprague-Dawley rats, one hour post injection
Experimental: Sprague-Dawley rats (250-300 g) were fasted for 18 hours and then dosed intraperitoneally either with saline or FBPase inhibitor. The vehicle used for drug administration was 10 mM bicarbonate. One hour post injection, rats were anesthetized with halothane, and liver and blood samples were taken and processed as described in Example E. The neutralized liver extracts were analyzed for FBPase inhibitor content by HPLC. A reverse phase YMC ODS AQ column ([…]) was used and eluted with a gradient from 10 mM sodium phosphate pH 5.5 to 75% acetonitrile. Absorbance was monitored at 310 nm. Glucose was measured in the blood sample as described in Example C. Plasma was prepared by centrifugation and extracted by addition of methanol to 60% (v/v). The methanolic extract was clarified by centrifugation and filtration and then analyzed by HPLC as described above.

[6] = Oral bioavailability determination by the urinary excretion method in the rat (Example G); format: in vivo, Sprague Dawley rats
Experimental: The oral bioavailability of prodrugs and parent compounds was determined by the urinary excretion method in the rat. Prodrugs were dissolved in 10% ethanol/90% polyethylene glycol (mw 400) and administered by oral gavage at doses of 10 to 40 mg/kg parent compound equivalents to 6-hour fasted, Sprague Dawley rats (220-240 g). Parent compounds were typically dissolved in deionized water, neutralized with sodium hydroxide, and then administered orally at 10-40 mg/kg or intravenously at ~10 mg/kg. The rats were subsequently placed in metabolic cages and urine was collected for 24 hours. The quantity of parent compound excreted into urine was determined by HPLC analysis as described in Example F. Analysis was performed as described in Example F. For prodrugs, the percentage oral bioavailability was estimated by comparison of the recovery in urine of the parent compound generated from the prodrug administered orally, to that recovered in urine following intravenous administration of the corresponding parent compound. For parent compounds, the percentage oral bioavailability was estimated by comparison of the recovery in urine of the parent compound when administered orally to that recovered when administered intravenously.

[7] = test system: ZDF rat; experiment: Combination treatment with Troglitazone and Compound G or Compound J in the ZDF rat - blood glucose (Example N); format: in vivo, Zucker Diabetic Fatty (ZDF) rat; conditions: for Blood Glucose, mg/dl Day 0: Day 0 (baseline); for Blood Glucose, mg/dl Day 21: Compound J 0.4% food admixture for 21 days
[8] = test system: ZDF rat; experiment: Combination treatment in the ZDF rat - plasma triglycerides (Example O); format: in vivo, Zucker Diabetic Fatty (ZDF) rat; conditions: for Plasma Triglycerides, mg/dl (Mean ± SEM): final day of treatment
Description: Results are considered significant with p<0.05.

[9] = test system: ZDF rat; experiment: Combination treatment in the ZDF rat - blood lactate (Example Q); parameters: species or system Zucker Diabetic Fatty (ZDF) rat; conditions: in vivo
Description: Blood samples were taken from the tail vein on days 0, 3, 7, 10 and 14 of the Troglitazone-Compound G combination study and on days 0,7,14, and 21 of the Troglitazone-Compound J combination study (study protocols are described in Example N).

[10] = test system: Rat Hepatocytes; experiment: Inhibition of Gluconeogenesis in Rat Hepatocytes (Example C); format: cell-based; conditions: glucose production from 10 mM lactate, 1 mM pyruvate, 1 hour, hepatocytes from fed Sprague-Dawley rats
[11] = test system: ZDF rat; experiment: Combination treatment with Rosiglitazone and Compound G in the ZDF rat - blood glucose (Example R); format: in vivo, Zucker Diabetic Fatty (ZDF) rat; conditions: Rosiglitazone 0.0045%, Compound G 0.2% food admixture, 25 days
[12] = test system: ZDF rat; experiment: Combination treatment in the ZDF rat - plasma insulin (Example P); format: in vivo, Zucker Diabetic Fatty (ZDF) rat; conditions: Troglitazone-Compound G study, final day of treatment
Experimental: Plasma was prepared by centrifugation and insulin levels then measured by means of an enzyme-linked immunoassay kit according to the instructions of the manufacturer (Amersham Life Sciences). […] Results are considered significant with p<0.05.

[13] = test system: db/db mouse; experiment: Combination treatment with Troglitazone and Compound G in the db/db mouse - blood glucose (Example S); format: in vivo; conditions: db/db mice, Troglitazone 0.1%, mean ± SEM
Description: Treatment was for 18 days. […] Results are considered significant with p<0.05.

[14] = test system: db/db mouse; experiment: Combination treatment with Troglitazone and Compound A in the db/db mouse - blood glucose (Example T); format: in vivo, C57BL/KsJ-db/db mice; conditions: for Blood glucose, mg/dl (8 am day 4): fed
Description: Male C57BL/KsJ-db/db mice were obtained from Jackson Laboratories (Bar Harbor, Maine) at 9 weeks of age. […] Group 1 (controls) received powdered Purina 5008 chow alone. […] This dose is reported to elicit the maximal hypoglycemic effect of Troglitazone in this model (Fujiwara et al 1995). […] Results are considered significant with p<0.05.

[15] = test system: type 2 diabetics; conditions: most common side-effect; cited from earlier work
[16] = Troglitazone-Compound J study, Troglitazone 0.2%, Compound J 0.4% food admixture, mean ± SEM
[17] = Troglitazone-Compound J study, Troglitazone 0.2%, mean ± SEM

IC50 [1]: 1300 nM
IC50 [2]: 25000 nM
IC50 [3]: 15000 nM
SMILES: Nc1ncnc2c1ncn2[C@@H]1O[C@H](COP(=O)(O)O)[C@@H](O)[C@H]1O [AMP]

SMILES: CCc1cc(F)c(N)c2nc(-c3ccc(P(=O)(O)O)o3)n(CC(C)C)c12 [Compound E]
intracellular fructose 1,6-bisphosphate [4]: dose-dependent elevation of intracellular fructose 1,6-bisphosphate
Glucose Lowering, % [5]: 44.4%

SMILES: CSc1nc(-c2ccc(P(=O)(O)O)o2)c(CC(C)C)s1 [Compound H, 2-Methylthio-5-isobutyl-4-[2-(5-phosphono)furanyl]thiazole]
IC50 [2]: 175 nM
Oral bioavailability, % ([6]; estimated, urinary excretion of parent compound over 24 hours, oral 10-40 mg/kg vs intravenous ~10 mg/kg, 6-hour fasted rats): 4%

SMILES: CCOC(=O)[C@H](C)NP(=O)(N[C@@H](C)C(=O)OCC)c1ccc(-c2nc(N)sc2CC(C)C)o1 [Compound J, 2-Amino-5-isobutyl-4-{2-[5-(N,N'-bis((S)-1-ethoxycarbonyl)ethyl)phosphonamido]furanyl}thiazole]
Oral bioavailability, % ([6]; rat, in vivo, po, 24 h): 21%
Blood Glucose, mg/dl Day 0 [7, 16]: 674 ± 20 mg/dL
Blood Glucose, mg/dl Day 21 [7, 17]: 452 ± 40 mg/dL
blood glucose lowering in pilot studies (dose selection) ([7]; ZDF rat, food admixture, pilot studies): a trend (not significant) towards more pronounced blood glucose lowering at 0.4% than at 0.2%
Plasma Triglycerides, mg/dl (Mean ± SEM) ([8]; Troglitazone-Compound J study): 759 ± 76 mg/dL
elevation of plasma triglycerides ([8]; monotherapy vs control, ZDF rat): ~2 fold
blood lactate typically elevated over baseline [9]: ~ 2 fold
maximal blood lactate elevations over baseline [9]: 3 fold

SMILES: CC(C)Cc1sc(N)nc1-c1ccc(P(=O)(N[C@@H](C)C(=O)OCc2ccccc2)N[C@@H](C)C(=O)OCc2ccccc2)o1 [Compound K, 2-Amino-5-isobutyl-4-[2-(5-N,N-bis(L-alanine acid dibenzyl ester)phosphonoamido)furanyl]thiazole]
IC50 [10]: 2100 nM

SMILES: CN(CCOc1ccc(CC2SC(=O)NC2=O)cc1)c1ccccn1 (centres unmarked) [Rosiglitazone]
Responders (rats whose blood glucose levels were lower on day 25 than on day 0) [11]: 6/10

SMILES: Cc1c(C)c2c(c(C)c1O)CCC(C)(COc1ccc(CC3SC(=O)NC3=O)cc1)O2 (centres unmarked) [Troglitazone]
IC50 ([10]; Rattus norvegicus, Hepatocyte): > 100000 nM
Blood Glucose, mg/dl Day 0 ([7]; Troglitazone-Compound G study, drugs as 0.2% food admixtures, mean ± SEM, n=8/group): 655 ± 33 mg/dL
Blood Glucose, mg/dl Day 14 ([7]; Troglitazone-Compound G study, drugs as 0.2% food admixtures for 15 days, mean ± SEM): 431 ± 73 mg/dL
Blood Glucose, mg/dl Day 0 [7, 16]: 669 ± 23 mg/dL
Blood Glucose, mg/dl Day 21 [7, 17]: 514 ± 135 mg/dL
Plasma Triglycerides, mg/dl (Mean ± SEM) ([8]; Troglitazone-Compound G study): 131 ± 16 mg/dL
Plasma Triglycerides, mg/dl (Mean ± SEM) ([8]; Troglitazone-Compound J study): 249 ± 60 mg/dL
Plasma Insulin, ng/ml (Mean ± SEM) [12]: 3.61 ± 1.03 ng/mL
Blood Glucose, mg/dl Day 0 ([13]; Day 0 (baseline), Compound G 0.4% food admixture): 710 ± 44 mg/dL
Blood Glucose, mg/dl Day 18 ([13]; Compound G 0.4% food admixture for 18 days): 509 ± 70 mg/dL
Blood glucose, mg/dl 2 pm, day 7 ([14]; 6 hours post second dose of Compound A 250 mg/kg (Group 3) or vehicle (Group 2), food withheld): 195 ± 12.1 mg/dL
Blood glucose, mg/dl (8 am day 4) ([14]; Group 2, Troglitazone 0.1% admixture): 240 ± 21.3 mg/dL
Blood glucose, mg/dl (8 am day 4) ([14]; Group 3, Troglitazone 0.1% admixture, before the first dose of Compound A): 237.5 ± 18.5 mg/dL
Blood glucose, mg/dl (5 pm day 4) ([14]; nine hours after single oral dose of Compound A 250 mg/kg (Group 3) or vehicle (Group 2), Troglitazone 0.1% admixture): 232.5 ± 17 mg/dL
elevation of liver enzymes (hepatotoxicity) [15]: 1 % of patients
